Molecules are shown by their SMILES.

The target in one assay is T1, human RORγt (Ligand Binding Domain) (Homo sapiens, UniProt P51449).
T1 construct: purchased Crelux (Planegg, Germany) batch no PC5032-1
T1 sequence (P51449 269-508 limits assumed): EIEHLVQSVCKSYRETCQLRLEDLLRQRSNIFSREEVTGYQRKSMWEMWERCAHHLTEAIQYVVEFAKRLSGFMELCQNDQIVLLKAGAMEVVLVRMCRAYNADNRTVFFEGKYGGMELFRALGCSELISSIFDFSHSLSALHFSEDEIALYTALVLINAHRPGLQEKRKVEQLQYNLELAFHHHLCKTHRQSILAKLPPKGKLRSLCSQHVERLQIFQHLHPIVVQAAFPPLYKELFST
Put plainly: Fluorescence Polarization (FP) Assay. The following applies: 100 nM human RORγt LBD, 25 nM TAMRA probe, values are activity range bounds. The method, then:
(§1) The activity of the compounds was evaluated using a Fluorescence Polarization (FP) Assay and, RORγ Reporter assay (also referred to as Gal4 assay). The FP assay is an in vitro assay monitoring binding within the ligand binding pocket. The RORγ and the Th17 assays (another suitable assay) are both cell-based assays monitoring functional activity of the compound assayed.
Fluorescence Polarization (FP) Assay
The total volume was 25 μl, in a black Perkin Elmer OptiPlate. As negative control, 1 μl DMSO was used. […] The probe is a fluorescently labeled (TAMRA) RORγt ligand identified by Nuevolution with a total molecular weight of 910 g/mole as shown in Graph A in FIG. 1.
In the case of `O=C(O)CNC(=O)CC1(CNc2ncnc(N(Cc3ccc(C(F)(F)F)cc3)C3CC3)c2F)CCOCC1` [Example A154, 2-[[2-[4-[[[6-[cyclopropyl-[[4-(trifluoromethyl)phenyl]methyl]amino]-5-fluoro-pyrimidin-4-yl]amino]methyl]tetrahydropyran-4-yl]acetyl]amino]acetic acid], the IC50 is < 2000 nM.
Same read-out and setting: in the case of `CN(Cc1cccc(OC(F)(F)F)c1)c1ncnc(NCc2ccc(CC(N)=O)cc2)c1F` [Example A128, 2-[4-[[[5-fluoro-6-[methyl-[[3-(trifluoromethoxy)phenyl]methyl]amino]pyrimidin-4-yl]amino]methyl]phenyl]acetamide] it was < 500 nM.
Still for that read-out and setting: as for `NC(=O)Cc1ccc(CNc2ncnc(N(Cc3cccc(-n4cncn4)c3)C3CC3)c2F)cc1` [Example A161, 2-[4-[[[6-[cyclopropyl-[[3-(1,2,4-triazol-1-yl)phenyl]methyl]amino]-5-fluoro-pyrimidin-4-yl]amino]methyl]phenyl]acetamide], the figure is < 500 nM; as for `COc1cc(CNc2ncnc(N(Cc3ccc(C(F)(F)F)cc3)C3CC3)c2F)ccn1` [Example A38, N4-cyclopropyl-5-fluoro-N6-[(2-methoxy-4-pyridyl)methyl]-N4-[[4-(trifluoromethyl)phenyl]methyl] pyrimidine-4,6-diamine], < 500 nM; as for `Cc1ccc(CNc2ncnc(N(Cc3ccc(C(F)(F)F)cc3)C3CC3)c2F)nn1` [Example A157, N4-cyclopropyl-5-fluoro-N6-[(6-methylpyridazin-3-yl)methyl]-N4-[[4-(trifluoromethyl)phenyl]methyl] pyrimidine-4,6-diamine], < 500 nM.
Take `NC(=O)Cc1ccc(CNc2ncnc(N(Cc3ccc(C(F)(F)F)cn3)C3CC3)c2F)cn1` [Example A113, 2-[5-[[[6-[cyclopropyl-[[5-(trifluoromethyl)-2-pyridyl]methyl]amino]-5-fluoro-pyrimidin-4-yl]amino]methyl]-2-pyridyl]acetamide]: the IC50 was < 10000 nM.
On the same count and under the same terms, as for `CN(Cc1ccc(-n2cccn2)cc1)c1ncnc(NCc2ccc(S(=O)(=O)O)cc2)c1F` [Example A137, 4-[[[5-fluoro-6-[methyl-[(4-pyrazol-1-ylphenyl)methyl]amino]pyrimidin-4-yl]amino]methyl]benzenesulfonic acid], the figure is < 500 nM.
The same measure, in the same setting: as for `O=S(=O)(Nc1ccc(CNc2ncnc(N(Cc3ccc(C(F)(F)F)nc3)C3CC3)c2F)cc1)C(F)F` [Example A105, N-[4-[[[6-[cyclopropyl-[[6-(trifluoromethyl)-3-pyridyl]methyl]amino]-5-fluoro-pyrimidin-4-yl]amino]methyl]phenyl]-1,1-difluoro-methanesulfonamide], the figure is < 10000 nM; as for `CS(=O)(=O)c1ccc(CNc2ncnc(N(Cc3ccc(C(F)(F)F)cn3)C3CC3)c2F)nc1` [Example A115, N4-cyclopropyl-5-fluoro-N6-[(5-methylsulfonyl-2-pyridyl)methyl]-N4-[[5-(trifluoromethyl)-2-pyridyl]methyl]pyrimidine-4,6-diamine], < 500 nM; as for `CC(c1cccc2ccccc12)N(C)c1ncnc(NCc2ccc(CC(N)=O)cc2)c1F` (stereo not drawn) [Example A131, 2-[4-[[[5-fluoro-6-[methyl-[1-(1-naphthyl)ethyl]amino]pyrimidin-4-yl]amino]methyl]phenyl]acetamide], < 500 nM.
Same read-out and setting: in the case of `N#Cc1ccc(CN(c2ncnc(NCc3ccc(CC(N)=O)cc3)c2F)C2CC2)cn1` [Example A93, 2-[4-[[[6-[(6-cyano-3-pyridyl)methyl-cyclopropyl-amino]-5-fluoro-pyrimidin-4-yl]amino]methyl]phenyl]acetamide] it was < 2000 nM.
`CN(Cc1ccc(-n2cccn2)cc1)c1ncnc(NCC2(CCO)CCOCC2)c1F` [Example A132, 2-[4-[[[5-fluoro-6-[methyl-[(4-pyrazol-1-ylphenyl)methyl]amino]pyrimidin-4-yl]amino]methyl]tetrahydropyran-4-yl]ethanol]: the IC50 was < 10000 nM.
In the case of `OC1(CNc2ncnc(N(Cc3ccc(C(F)(F)F)cc3)C3CC3)c2F)CCSCC1` [Example A30, 4-[[[6-[cyclopropyl-[[4-(trifluoromethyl)phenyl]methyl]amino]-5-fluoro-pyrimidin-4-yl]amino]methyl]tetrahydrothiopyran-4-ol], the 50% inhibitory concentration (IC50) was < 500 nM.
`CN(Cc1ccc(-n2cccn2)cc1)c1ncnc(NCc2ccc(-c3nnn[nH]3)cc2)c1F` [Example A134, 5-fluoro-N6-methyl-N6-[(4-pyrazol-1-ylphenyl)methyl]-N4-[[4-(1H-tetrazol-5-yl)phenyl]methyl]pyrimidine-4,6-diamine]: the IC50 was < 2000 nM.
Same read-out and setting: as for `COC1(CNc2ncnc(N(Cc3ccc(C(F)(F)F)cc3)C3CC3)c2F)CCOCC1` [Example A29, N6-cyclopropyl-5-fluoro-N4-[(4-methoxytetrahydropyran-4-yl)methyl]-N6-[[4-(trifluoromethyl)phenyl]methyl] pyrimidine-4,6-diamine], the figure is < 500 nM.
For `O=S1(=O)CCOC(CNc2ncnc(N(Cc3ccc(C(F)(F)F)cc3)C3CC3)c2F)C1` (stereo not drawn) [Example A35, N6-cyclopropyl-N4-[(4,4-dioxo-1,4-oxathian-2-yl)methyl]-5-fluoro-N6-[[4-(trifluoromethyl)phenyl]methyl] pyrimidine-4,6-diamine], the IC50 was < 500 nM.
The same measure, in the same setting: in the case of `CS(=O)(=O)N1CC(CNc2ncnc(N(Cc3ccc(C(F)(F)F)cn3)C3CC3)c2F)C1` [Example A173, N4-cyclopropyl-5-fluoro-N6-[(1-methylsulfonylazetidin-3-yl)methyl]-N4-[[5-(trifluoromethyl)-2-pyridyl]methyl]pyrimidine-4,6-diamine] it was < 10000 nM; in that of `CS(=O)(=O)c1ccc(CNc2ncnc(N(Cc3ccc(C(F)(F)F)nc3)C3CC3)c2F)nc1` [Example A114, N4-cyclopropyl-5-fluoro-N6-[(5-methylsulfonyl-2-pyridyl)methyl]-N4-[[6-(trifluoromethyl)-3-pyridyl]methyl]pyrimidine-4,6-diamine], < 500 nM; in that of `NC(=O)Cc1ccc(CNc2ncnc(N(Cc3ccc4c(c3)OCC(=O)N4)C3CC3)c2F)cc1` [Example A162, 2-[4-[[[6-[cyclopropyl-[(3-oxo-4H-1,4-benzoxazin-7-yl)methyl]amino]-5-fluoro-pyrimidin-4-yl]amino]methyl]phenyl]acetamide], < 500 nM.

The next assay addresses T2, ligand binding domain of human RORγ (Homo sapiens, UniProt P51449).
T2 construct: host or cells: HEK293t
T2 sequence (P51449 269-508 limits assumed): T1 sequence (P51449 269-508 limits assumed)
Kind of assay: RORγ Reporter Assay (Gal4). The format is cell-based. The following applies: HEK-293T, 1 μM test compound, HEK293t RORγ reporter cells, 24 hour; read-out: Gal4 activity range @ 1 μM (% inhibition). As for the experimental part:
as §1
RORγ Reporter Assay (Gal4)
Cell-based RORγ functional assays were performed using a commercially available assay product (INDIGO Biosciences, State College, Pa., USA; product # IB04001). The RORγ reporter cells are HEK293t cells transfected with one vector that provides high level constitutive expression of a hybrid protein comprised of the yeast Gal4-DNA binding domain fused to the ligand binding domain of human RORγ, and a second vector comprising the firefly luciferase cDNA functionally linked to the upstream activation sequence (UAS) of yeast Gal4. A suspension of RORγ Reporter Cells was prepared using the protocol and culture medium provided in the kit product, and 100 μl of the Reporter Cell suspension was then dispensed into wells of a white, collagen-treated, 96-well assay plate. Concentrated stocks of test compounds were prepared in DMSO, then further diluted using media provided in the kit to generate ‘2×-concentration’ treatment media. 100 μl of medium for each respective treatment concentration dispensed into triplicate assay wells, thereby combining with the reporter cells. All media formulations contained 10% charcoal stripped Fetal Bovine Serum, but are otherwise proprietary to INDIGO Biosciences. Final treatment concentrations for each test compound were 1,000 nM and 100 nM, each with 0.1% residual DMSO. Separate control treatments were media supplemented with vehicle only (0.1% DMSO) to determine the constitutive level of RORγ activity in the reporter cells, and the reference inverse-agonist ursolic acid (f.c. 6,000 nM to 8.2 nM in 3-fold decrements) to establish a positive control inverse-agonist dose response. Assay plates were placed in a 37° C., 5% CO2, 85% humidity incubator for 24 hour. Treatment media were then discarded, 100 μl of luciferase detection reagent was added to each well, and relative light units (RLUs) were quantified from each assay well using a plate reading luminometer. Values of average RLU+/−standard deviation were computed for all treatment sets, followed by the calculations of fold-reduction: [Average RLUVehicle/Average RLUTest Cmpd]. Percent-reduction of RORγ activity in response to respective test compound treatments was calculated: [100*(1−[Ave RLUTest Cmpd/Ave RLUVehicle)] where the theoretical minimum reduction (0% reduction) derives from Vehicle treatment only, no treatment compound. In some aspects it may be of interest to provide compounds with selective modulation of RORγ for example compounds that are selective to RORγ over RORα, compounds that are selective for RORγ versus RORPβ, and compounds that are selective for RORγ versus BOTH RORα and RORPβ. It may also be of interest to provide compounds that are selective for RORγ versus further nuclear hormone receptors such as CAR1, FXR, GR, LXRα, LXRβ, PPARα, PXR, RARα, RXRα, TRα, VDR. It is apparent to those skilled in the art that these nuclear hormone receptors are merely examples, and that selectivity against other nuclear receptors may also be of interest. It may for example be of interest to provide compounds that modulate RORγ and one or more further nuclear hormone receptors, as well as compounds that modulate both RORγ and RORα, or RORγ and RORβ. It may also be of interest to provide compounds that modulate RORγ and BOTH RORα and RORP, as well as compounds that modulate both RORγ and one or more further nuclear hormone receptors such as CAR1, FXR, GR, LXRα, LXRβ, PPARα, PXR, RARα, RXRα, TRα, VDR. It is apparent to those skilled in the art that these nuclear hormone receptors are merely examples, and that modulation of even other nuclear receptors may also be of interest. […]
For the compound `CS(=O)(=O)CC1(CNc2ncnc(N(Cc3ccc(C(F)(F)F)cc3)C3CC3)c2F)CCOCC1` [Example A49, N6-cyclopropyl-5-fluoro-N4-[[4-(methylsulfonylmethyl)tetrahydro-pyran-4-yl]methyl]-N6-[[4-(trifluoromethyl)phenyl]methyl] pyrimidine-4,6-diamine], the inhibition at 1 µM was > 80%.

The same assay, now with this note: RORγ Reporter Assay (Gal4), HEK293t reporter cells, compound at 0.1 μM; values are activity range bounds.
As for `CS(=O)(=O)CC1(CNc2ncnc(N(Cc3ccc(C(F)(F)F)cc3)C3CC3)c2F)CCOCC1` [Example A49, N6-cyclopropyl-5-fluoro-N4-[[4-(methylsulfonylmethyl)tetrahydro-pyran-4-yl]methyl]-N6-[[4-(trifluoromethyl)phenyl]methyl] pyrimidine-4,6-diamine], the “Gal4 activity range @ 0.1 μM (% inhibition)” value is recorded as >80 % inhibition.

The values are drawn from patent US10683293B2, “Optionally fused heterocyclyl-substituted derivatives of pyrimidine useful for the treatment of inflammatory, metabolic, oncologic and autoimmune diseases” (NUEVOLUTION A/S, priority 2014, dated 2020).
